The IC50 is the concentration needed to halve the response being measured. The term melting point denotes the temperature, or range, at which the solid turns liquid.

We go through ten compounds from publication PMC8306139, “A Novel Dialkylamino-Functionalized Chalcone, DML6, Inhibits Cervical Cancer Cell Proliferation, In Vitro, via Induction of Oxidative Stress, Intrinsic Apoptosis and Mitotic Catastrophe” (Molecules, 2021).

Read-outs that look alike come from different tables or passages of the source. Where only a bound is given, the exact number is not on record here.

Data set [1] relates to HEK293. Nature of the data set: MTT assay, HEK293. Particulars: read-out: IC50 ± SD Kidney HEK293. The data set is classed as cell-based, human. For orientation: Formazan colour is commonly taken as a measure of viable cells.
Experimental: (§1) The concentration of the tested compounds that produced a 50% inhibition of cell growth (IC50) was determined.
(§2) A panel of cancer cell lines, including cervical (OV2008 and HeLa), breast (MDA-MB-231), lung (A549) and colon (LOVO), prostate (DU145), human embryonic kidney cells (HEK293), human colon fibroblast cells (CRL1459), and Chinese hamster ovary cells (CHO), were grown as adherent monolayers in flasks containing Dulbecco’s modified Eagle medium (DMEM), supplemented with 10% fetal bovine serum (FBS) and 1% penicillin and streptomycin, in a humidified incubator with 5% CO2 at 37 °C.
(§3) The cells were seeded evenly (180 μL/well) in 96-well plates, at a density of 3000–5000 cells/well and incubated with serial dilutions of the compounds ranging from 0.1 to 100 μM. The MTT dye (4 mg/ml) was added after 72 h of incubation and incubated with the cells for an additional 4 h at 37 °C, allowing the viable cells to biotransform the yellow-colored MTT into dark-blue formazan crystals. Following incubation, the medium was aspirated, and the formazan crystals were dissolved by adding 100 μL of DMSO to each well. Cytation™ 5 and Cytation™ 7 multi-mode detector (Bio Tek Instruments, Winooski, VT, USA) was used to determine the absorbance readings at a wavelength of 570 nm. The IC50 values were determined based on 3 separate experiments, with each experiment carried out in triplicate.
The subject of data set [2] is MDA-MB-231. Nature of the data set: MTT assay, MDA-MB-231. In kind it is cell-based. To be noted: read-out: IC50 ± SD Breast MDA-MB-231.
Experimental: as §1, §2, §3
The subject of data set [3] is LOVO. Nature of the data set: MTT assay, LOVO. In kind it is cell-based. Particulars: 72 h, read-out: IC50 ± SD Colon LOVO.
Experimental: as §1, §2, §3
Data set [4] deals with A549. As to the kind of experiment: MTT assay, A549. In kind it is cell-based. To be noted: read-out: IC50 ± SD Lung A549.
Experimental: as §1, §2, §3
Data set [5] has as its system DU145. Nature of the data set: MTT assay, DU145. Particulars: Homo sapiens, DU-145, 72 h, read-out: IC50 ± SD Prostate DU145. In kind it is cell-based.
Experimental: as §1, §2, §3
Data set [6] concerns OV2008. Nature of the data set: MTT assay, OV2008. The data set is classed as cell-based. To be noted: 72 h, read-out: IC50 ± SD Cervical OV2008.
Experimental: as §1, §2
(§4) The cells were seeded evenly (180 μL/well) in 96-well plates, at a density of 3000–5000 cells/well and incubated with serial dilutions of the compounds ranging from 0.1 to 100 μM. The MTT dye (4 mg/ml) was added after 72 h of incubation and incubated with the cells for an additional 4 h at 37 °C, allowing the viable cells to biotransform the yellow-colored MTT into dark-blue formazan crystals. Following incubation, the medium was aspirated, and the formazan crystals were dissolved by adding 100 μL of DMSO to each well. Cytation™ 5 and Cytation™ 7 multi-mode detector (Bio Tek Instruments, Winooski, VT, USA) was used to determine the absorbance readings at a wavelength of 570 nm. The IC50 values were determined based on 3 separate experiments, with each experiment carried out in triplicate. The selectivity of the compounds was determined by comparing their IC50 values in cervical cancer compared to the normal epithelial cell lines, HEK293, CHO, and CRL1459.
Data set [7] has as its system HeLa. As to the kind of experiment: MTT assay, HeLa. The data set is classed as cell-based. To be noted: 72 h, read-out: IC50 ± SD Cervical HeLa. The procedure: Table S1. The antiproliferative efficacy of the DML1-DML12 compounds on the proliferation of cervical cancer cell line.
Figure S1. The efficacy of DML6 in HeLa cancer cells. The cell-viability curve produced by HeLa cells treated with
vehicle (0 μM), 5 or 10 μM of DML6 after 72 h of incubation. Cell survival was determined using the MTT assay. The
IC50 values are represented as the means ± SD of three independent experiments performed in triplicate. […]

Data set [8] concerns cancer cell lines. Nature of the data set: MTT assay, panel of cancer cell lines. The data set is classed as cell-based.
Experimental: as §1, §2, §4

The compound `CN(C)c1ccc(/C=C/C(=O)c2ccccn2)cc1` [DML1, (E)-3-[4-(dimethylamino)phenyl]-1-(pyridin-2-yl)prop-2-en-1-one] registered a melting point of 126 °C. Also, the IC50 in data set [1] (Homo sapiens, HEK293, 72 h) was > 100 µM. Moreover, in data set [2] (Homo sapiens, MDA-MB-231, 72 h), the IC50 was > 100 µM. The half-inhibitory concentration (IC50) in data set [3] (Homo sapiens, LoVo) is > 100 µM. For the same compound, the IC50 in data set [4] (Homo sapiens, A549, 72 h) was > 100 µM. Moreover, in data set [5], the IC50 is > 100 µM. Also, the half-inhibitory concentration (IC50) in [6] was > 100 µM. Also, the IC50 in [7] is 70.7 ± 2.19 µM. Also, the IC50 in [7] (Homo sapiens, HeLa) is > 70 µM.

Compound `CCN(CC)c1ccc(/C=C/C(=O)c2ccccn2)cc1` [DML2, (E)-3-[4-(diethylamino)phenyl]-1-(pyridin-2-yl)prop-2-en-1-one] registered a melting point of 142 °C. Besides, the 50% inhibitory concentration (IC50) in data set [1] (Homo sapiens, HEK293, 72 h) is > 100 µM. In addition, the IC50 in [2] (Homo sapiens, MDA-MB-231, 72 h) was > 100 µM. Also, the concentration for half-maximal inhibition (IC50) in data set [3] (Homo sapiens, LoVo) was > 100 µM. Further, the 50% inhibitory concentration (IC50) in [4] (Homo sapiens, A549, 72 h) was > 100 µM. Further, the IC50 in [5] was > 100 µM. In addition, the concentration for half-maximal inhibition (IC50) in [6] was > 100 µM. In addition, the IC50 in data set [7] (Homo sapiens, HeLa) is > 100 µM.

For `COc1ccc(C(=O)/C=C/c2ccc(N(C)C)cc2)cc1` [DML3, (E)-3-[4-(dimethylamino)phenyl]-1-(4-methoxyphenyl)prop-2-en-1-one], the IC50 is > 100 µM in data set [1] (Homo sapiens, HEK293, 72 h); > 100 µM in [2] (Homo sapiens, MDA-MB-231, 72 h); > 100 µM in [3] (Homo sapiens, LoVo); > 100 µM in data set [4] (Homo sapiens, A549, 72 h); > 100 µM in data set [5]; > 100 µM in [6]. Also, in data set [7] (Homo sapiens, HeLa), the IC50 is > 100 µM.

Regarding `COc1ccc(C(=O)/C=C/c2ccc(N(C)C)cc2)cc1OC` [DML4, (E)-1-[3,4-dimethoxyphenyl]-3-(4-(dimethylamino)phenyl)prop-2-en-1-one], the melting point amounted to 86 °C. For the same compound, the IC50 in [1] (72 h) worked out at 68.5 ± 2.1 µM. In [1] (Homo sapiens, HEK293, 72 h), the 50% inhibitory concentration (IC50) is > 65 µM. Moreover, the IC50 in data set [2] (72 h) was 26.2 ± 23.9 µM. Besides, the IC50 in data set [2] (Homo sapiens, MDA-MB-231, 72 h) worked out at 26.7 ± 23.9 µM. Further, the IC50 in [3] is 45 ± 22.6 µM. In [3] (Homo sapiens, LoVo), the IC50 is 66.3 ± 4.6 µM. Besides, the IC50 in data set [4] (72 h) turned out to be 66.3 ± 4.6 µM. Further, the 50% inhibitory concentration (IC50) in data set [4] (Homo sapiens, A549, 72 h) stood at 45 ± 22.6 µM. Also, the IC50 in [5] was 22.5 ± 4.9 µM. The 50% inhibitory concentration (IC50) in [6] is 13.8 ± 7 µM. For the same compound, the IC50 in data set [7] (Homo sapiens, HeLa) stood at 39.5 ± 11.4 µM. In addition, the “anti-proliferative efficacy in a wide range of cancer cell lines, compared to normal cells” value in data set [8] is “moderate to good anti-proliferative efficacy”.

Consider `CN(C)c1ccc(C2=NN(c3ccccc3)C(c3ccccn3)C2)cc1` (stereo not shown) [DML7, N,N-dimethyl-4-[1-phenyl-5-(pyridin-2-yl)-4,5-dihydro-1H-pyrazol-3-yl]aniline], for which the melting point was found to be 179 °C. The concentration for half-maximal inhibition (IC50) in data set [1] (Homo sapiens, HEK293, 72 h) was > 100 µM. For the same compound, in data set [2] (Homo sapiens, MDA-MB-231, 72 h), the IC50 was > 100 µM. Moreover, in data set [3] (Homo sapiens, LoVo), the half-maximal inhibitory concentration (IC50) is > 100 µM. The IC50 in data set [4] (Homo sapiens, A549, 72 h) is > 100 µM. For the same compound, in [5], the IC50 is > 100 µM. Moreover, the IC50 in [6] is > 100 µM. Further, the IC50 in [7] (Homo sapiens, HeLa) is > 100 µM.

For `CCN(CC)c1ccc(C2=NN(c3ccccc3)C(c3ccccn3)C2)cc1` (stereo not shown) [DML8, N,N-diethyl-4-[1-phenyl-5-(pyridin-2-yl)-4,5-dihydro-1H-pyrazol-3-yl]aniline], the melting point was determined as 188 °C. Besides, the half-maximal inhibitory concentration (IC50) in data set [1] (Homo sapiens, HEK293, 72 h) was > 100 µM. For the same compound, the 50% inhibitory concentration (IC50) in data set [2] (Homo sapiens, MDA-MB-231, 72 h) is > 100 µM. Besides, the IC50 in data set [3] (Homo sapiens, LoVo) was > 100 µM. Besides, in [4] (Homo sapiens, A549, 72 h), the concentration for half-maximal inhibition (IC50) is > 100 µM. The IC50 in data set [5] is > 100 µM. Further, the half-maximal inhibitory concentration (IC50) in [6] was > 100 µM. The half-maximal inhibitory concentration (IC50) in [7] (Homo sapiens, HeLa) is > 100 µM.

The compound `COc1ccc(C2CC(c3ccc(N(C)C)cc3)=NN2c2ccccc2)cc1` (stereo not shown) [DML9, 4-(5-[4-methoxyphenyl]-1-phenyl-4,5-dihydro-1H-pyrazol-3-yl)-N,N-dimethylaniline] gave a melting point of 147 °C. The IC50 in [1] (Homo sapiens, HEK293, 72 h) is > 100 µM. Moreover, the IC50 in data set [2] (Homo sapiens, MDA-MB-231, 72 h) is > 100 µM. Further, the IC50 in data set [3] (Homo sapiens, LoVo) is > 100 µM. In addition, the IC50 in [4] (Homo sapiens, A549, 72 h) was > 100 µM. Further, in data set [5], the concentration for half-maximal inhibition (IC50) was > 100 µM. Besides, the half-inhibitory concentration (IC50) in [6] is > 100 µM. In data set [7] (Homo sapiens, HeLa), the IC50 is > 100 µM.

Consider `COc1ccc(C2CC(c3ccc(N(C)C)cc3)=NN2c2ccccc2)cc1OC` (stereo not shown) [DML10, 4-(5-(3,4-dimethoxyphenyl)-1-phenyl-4,5-dihydro-1H-pyrazol-3-yl)-N,N-dimethylaniline], for which the melting point was determined as 134 °C. In data set [1] (Homo sapiens, HEK293, 72 h), the 50% inhibitory concentration (IC50) is > 100 µM. Moreover, the IC50 in data set [2] (Homo sapiens, MDA-MB-231, 72 h) was > 100 µM. In addition, the IC50 in data set [3] (Homo sapiens, LoVo) was > 100 µM. The IC50 in data set [4] (Homo sapiens, A549, 72 h) is > 100 µM. The half-maximal inhibitory concentration (IC50) in [5] was > 100 µM. Moreover, in data set [6], the IC50 was > 100 µM. Besides, the IC50 in data set [7] (Homo sapiens, HeLa) was > 100 µM.

With `CCN(CC)c1ccc(C2=NN(c3ccccc3)C(c3ccc(OC)cc3)C2)cc1` (stereo not shown) [DML11, N,N-diethyl-4-(5-(4-methoxyphenyl)-1-phenyl-4,5-dihydro-1H-pyrazol-3-yl)aniline], the melting point stood at 121 °C. Also, the IC50 in data set [1] (Homo sapiens, HEK293, 72 h) is > 100 µM. Further, in [2] (Homo sapiens, MDA-MB-231, 72 h), the IC50 was > 100 µM. For the same compound, the IC50 in data set [3] (Homo sapiens, LoVo) was > 100 µM. Also, in data set [4] (Homo sapiens, A549, 72 h), the 50% inhibitory concentration (IC50) is > 100 µM. In addition, the IC50 in data set [5] is > 100 µM. Also, in [6], the IC50 is > 100 µM. For the same compound, the concentration for half-maximal inhibition (IC50) in [7] (Homo sapiens, HeLa) is > 100 µM.

The compound `CN(C)c1ccc(C2=NN(c3ccccc3)C(c3ccc(Cl)cc3Cl)C2)cc1` (stereo not shown) [DML12, 4-(5-(2,4-dichlorophenyl)-1-phenyl-4,5-dihydro-1H-pyrazol-3-yl)-N,N-dimethylaniline] came in with a melting point of 124 °C. In addition, the IC50 in data set [1] (Homo sapiens, HEK293, 72 h) is > 100 µM. In [2] (Homo sapiens, MDA-MB-231, 72 h), the IC50 is > 100 µM. Besides, in data set [3] (Homo sapiens, LoVo), the IC50 was > 100 µM. Further, the IC50 in data set [4] (Homo sapiens, A549, 72 h) is > 100 µM. Moreover, in data set [5], the IC50 was > 100 µM. Also, the half-maximal inhibitory concentration (IC50) in data set [6] is > 100 µM. In addition, the IC50 in data set [7] (Homo sapiens, HeLa) was > 100 µM.
